The source of these data is article PMC7217877, “N-AS-triggered SPMs are direct regulators of microglia in a model of Alzheimer’s disease” (Nature Communications, 2020).

Values joined by “and” are separate entries in the source; they are usually repeats but may differ in a detail not shown here. Equal values may be shown once.

For assay [1], the target named is T1, COX2 (Homo sapiens, UniProt P35354).
T1 sequence (P35354 18-604): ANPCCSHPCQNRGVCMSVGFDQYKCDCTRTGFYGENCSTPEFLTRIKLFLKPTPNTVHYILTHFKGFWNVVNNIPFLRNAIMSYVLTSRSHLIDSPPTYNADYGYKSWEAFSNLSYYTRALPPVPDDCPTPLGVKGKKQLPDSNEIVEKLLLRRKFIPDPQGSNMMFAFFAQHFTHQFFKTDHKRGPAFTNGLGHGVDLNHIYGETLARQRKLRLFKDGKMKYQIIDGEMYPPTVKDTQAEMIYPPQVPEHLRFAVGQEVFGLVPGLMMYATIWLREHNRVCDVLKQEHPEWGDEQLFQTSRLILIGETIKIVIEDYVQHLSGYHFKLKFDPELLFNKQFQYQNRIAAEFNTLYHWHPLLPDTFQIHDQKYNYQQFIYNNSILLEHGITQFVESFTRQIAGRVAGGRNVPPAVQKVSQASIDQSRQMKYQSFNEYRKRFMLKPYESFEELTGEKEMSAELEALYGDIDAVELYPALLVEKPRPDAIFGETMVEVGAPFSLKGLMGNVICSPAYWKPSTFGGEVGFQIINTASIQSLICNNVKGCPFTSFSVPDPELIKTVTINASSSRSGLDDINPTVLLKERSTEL
The assay is described as follows: lipid mediator and SPM biosynthesis by recombinant COX2 with 5-LOX (LC-MS/MS). It is filed as biochemical. Also on record: purchased Cayman 60122. To be noted: for 11-HETE, Product (%) / 15-HETE, Product (%) / 15R-LXA4, Product (%) / PGH2, Product (%): AA; for 11-HETE, Product (%) / 15-HETE, Product (%) / 15R-LXA4, Product (%) / PGH2, Product (%) / 13-HDHA, Product (%) / 17-HDHA, Product (%) / RvD1, Product (%) / 11-HEPE, Product (%) / 15-HEPE, Product (%) / 18-HEPE, Product (%) / RvE1, Product (%): acetylated huCOX2, mean±s.e.m., n=6; for 15R-LxA4 quantification (Fig 2c) / RvD1 quantification (Fig 2c) / RvE1 quantification (Fig 2c): Control COX2 + 5-LOX, replicates; for 13-HDHA, Product (%) / 17-HDHA, Product (%) / RvD1, Product (%): DHA; for 11-HEPE, Product (%) / 15-HEPE, Product (%) / 18-HEPE, Product (%) / RvE1, Product (%): EPA. The method, then: Lipid mediators metabololipidomics were performed according to previously described procedures with minor modifications[4],[30]. To confirm the biosynthesis of lipid mediators by recombinant COX2 treated with N-AS or aspirin, 10 U of human recombinant COX2 (Cayman, 60122) was incubated in the presence of 500 μM aspirin (Sigma-Aldrich, A5376) or N-AS (Sigma-Aldrich, 01912) at 37 °C for 30 min. The enzyme was filtered with a Microcon column (Millipore) to remove unreacted aspirin or N-AS and was then resuspended in 0.1 M Tris-HCl (pH 8.0). Next, 500 μM phenol (Sigma-Aldrich) and 1 μM hematin-porcine (Sigma-Aldrich) were added immediately before incubation with 100 μM AA, EPA or DHA (Cayman) at 37 °C for 2 h, respectively. The mixtures were incubated with 30 U of human 5-LOX (Cayman, 60402) containing 2 mM CaCl2 (Sigma-Aldrich), 1 mM ATP (Amresco) and 5 μM 13-HpODE (Cayman) as activators. Also, to validate the importance of residue S565 for N-AS-acetylation of COX2 and production of SPMs, 10 U of the COX2 S565A mutant was used in the above-described method. In addition, to confirm SPM generation in neurons and microglia, these cells were treated with Aβ and sonicated in neuronal and glial culture medium. […] To evaluate the relationship of N-AS and SPM production in microglia, microglia were isolated from WT, APP/PS1, and APP/PS1 treated with N-AS mice at 9 months of age. The microglia were sonicated and resuspended in microglial culture medium. The supernatants were incubated with 100 μM AA, EPA, and DHA (Cayman) at 37 °C for 2 h. A 50 μl aliquot of the mixture from each cell lysate was added to a 250 μl aliquot of 1 ng ml^−1 of 15S-LXA4-d5 (internal standard, Cayman) methanol solution. After vortexing for 10 min and centrifuging at 15,974×g for 5 min, the supernatant was subjected to the analysis of the lipid mediators using an Agilent 6470 Triple Quad LC-MS/MS system (Agilent) coupled to an Agilent 1290 HPLC system. Chromatographic separation was achieved using a Synergi Polar RP (4 μm, 2.0 mm i.d. × 150 mm, Phenomenex). Analytes were eluted with a mobile phase consisting of water: formic acid (100:0.1 v/v) (phase A) and methanol: formic acid (100:0.1 v/v) (phase B) in gradient elution mode for 23 min a flow rate of 0.2 ml min^−1. The elution gradient was as follows: from 0 to 0.1 min the content of phase A was 37% and the content of phase A was decreased to 10% and maintained for 5.5 min. The content of phase A was increased back to 37% at 6.0 min and maintained for 23 min. Quantification was carried out using MRM in negative ionization mode and collision energy of 10–15 eV. The mass transition from Q1 to Q3 is shown in Supplementary Table 2. In this study, the peak areas for all components were automatically integrated using MassHunter B 06.00.

Assay [2] deals with APP/PS1 mice. Kind of assay: COX2 mRNA and protein in microglia of mice treated with N-AS or aspirin (Supplementary Fig 7p,q). The conditions noted are these: for COX2 mRNA in microglia: APP/PS1 mice treated, sFig 7p. The class given is in vivo, mouse. The source says: Adult neurons and microglia were isolated from the mice brain as previously described. In brief, the cortex of WT (1, 3, 5, or 9-months-old), APP/PS1 (1, 3, 5, or 9-months-old), APP/PS1 treated with N-AS (9-months-old) or APP/PS1 treated with aspirin (9-months-old) mice were minced in Hibernate A (Gibco)/B27 (Invitrogen) medium and dissociated using papain (Worthington) solution. After tissue trituration, cells were separated by Optiprep (Sigma-Aldrich) density gradient centrifugation.
Samples were lysed in RIPA buffer (Cell signaling Technologies), then subjected to SDS-PAGE and transferred to a nitrocellulose membrane. Membranes were blocked with 5% milk, incubated with primary antibody and then incubated with the appropriate horseradish peroxidase-conjugated secondary antibody. […] We performed densitometric quantification using the ImageJ software (National Institutes of Health). Images have been cropped for presentation.
Transgenic mouse lines over-expressing the hAPP695swe (APP) and presenilin-1M146V (PS1) mutations were originated from GlaxoSmithKline (Harlow, UK)[32] and maintained as described previously. […] Because APP/PS1 and 5xFAD mice show sex differences in disease progression, we used only male mice. […] Block randomization method was used to allocate the animals to experimental groups. To eliminate the bias, we were blinded in experimental progress such as data collection and data analysis. […] All protocols were approved by the Kyungpook National University Institutional Animal Care and Use Committee.
For total RNA extraction from the microglia derived from WT, APP/PS1, APP/PS1 mice treated with N-AS, and APP/PS1 mice treated with aspirin, the cells were isolated from the cortex of WT, APP/PS1, APP/PS1 mice treated with N-AS, or aspirin using the methods described above. […] Quantitative real-time PCR was performed using a Corbett research RG-6000 real-time PCR instrument. Primers are described in Supplementary Table 5.

`CC(=O)Oc1ccccc1C(=O)O` [Aspirin, acetylsalicylic acid, reference compound]: in assay [1], the “11-HETE, Product (%)” value was 13.8±0.41%; the “15-HETE, Product (%)” value is on record as 9.5±0.22%; the “15R-LXA4, Product (%)” value was found to be 4.2±0.18%; the “PGH2, Product (%)” value stood at 72.3±0.68%. In assay [1], the “15R-LxA4 quantification (Fig 2c)” value is 8734.32 and 9047.96 and 8672.38 and 8679.89 and 12017 and 8786.05 and 9112.59; the “RvD1 quantification (Fig 2c)” value is 529.99 and 519.44 and 632.8 and 532.11 and 521.52; the “RvE1 quantification (Fig 2c)” value was 3237.03 and 3196.43 and 4589.07 and 4937.89 and 3246.64 and 3210.17; the “13-HDHA, Product (%)” value is listed as 5.0±0.15%. Further, in assay [1], the “17-HDHA, Product (%)” value worked out at 94.6±0.22%; the “RvD1, Product (%)” value amounted to 0.4±0.01%; the “11-HEPE, Product (%)” value was 27.3±1.40%; the “15-HEPE, Product (%)” value is reported as 5.8±0.06%. In assay [1], the “18-HEPE, Product (%)” value came to 61.3±0.32% and the “RvE1, Product (%)” value amounted to 3.1±0.25%. Further, the “COX2 mRNA in microglia” value in assay [2] is 0.57 and 0.65 and 0.68 and 0.49 and 0.61.
Turning to `CCCCCCCCCCCCC/C=C/[C@@H](O)[C@H](CO)NC(C)=O` [N-AS, N-((2S,3R,E)-1,3-Dihydroxyoctadec-4-en-2-yl)acetamide], in assay [1], the “11-HETE, Product (%)” value was found to be 13.1±0.55%; the “15-HETE, Product (%)” value was 13.3±0.59%; the “15R-LXA4, Product (%)” value is on record as 4.8±0.23%; the “PGH2, Product (%)” value turned out to be 69.7±1.08%. Further, in assay [1], the “15R-LxA4 quantification (Fig 2c)” value is 10460.6 and 9709.13 and 8768.93 and 9235.99 and 8577.96 and 10535.3; the “RvD1 quantification (Fig 2c)” value was 670.43 and 829.94 and 668.56 and 744.28 and 781.34 and 739.49 and 733.66; the “RvE1 quantification (Fig 2c)” value was 4023.99 and 3322.2 and 4006.77 and 4517.41 and 3768.91 and 4998.35 and 3336.48; the “13-HDHA, Product (%)” value was 3.6±0.09%. For the same molecule, in assay [1], the “17-HDHA, Product (%)” value is given as 95.8±0.19%; the “RvD1, Product (%)” value is recorded as 0.53±0.09%; the “11-HEPE, Product (%)” value came out at 26.8±0.41%; the “15-HEPE, Product (%)” value came to 5.8±0.09%. Further, in assay [1], the “18-HEPE, Product (%)” value came out at 64.0±0.25% and the “RvE1, Product (%)” value amounted to 3.3±0.09%. Moreover, the “COX2 mRNA in microglia” value in assay [2] was 0.91 and 0.92 and 1.07 and 1.22 and 1. The “mRNA and protein levels of COX2” value in assay [2] (N-AS-treated vs APP/PS1) is “did not vary”.
